Laboratory results reported in PubChem BioAssay AID179 (DTP/NCI, 2004).
Values joined by “and” are separate entries in the source; they are usually repeats but may differ in a detail not shown here. Identical values can stand only once. Active and inactive are the calls of the source.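 The calls were made as follows: active = compounds giving half or more protection of infected cells from virus-caused growth loss, again on retest; inactive = the rest.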

Test system: CEM cells HIV-1 protection, formazan growth assay
Assay: NCI AIDS Antiviral Assay
Details: for IC50: measured here: growth of uninfected CEM cells
Outline: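 Screen of anti-HIV-1 activity in human CEM cells using a formazan-based growth measurement at five drug concentrations. Hits with 50% or greater protection were repeated, and confirmation required reproducible complete protection.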

## CCN(CC)CCn1c2c3ccccc3ccc2c2oc(=O)c3ccccc3c21
  EC50: > 16.2 µM
  IC50: > 16.2 µM

## O=C1NC(N/N=C\C(O)C(O)C(O)C(O)CO)=N/C1=C\c1ccc(Cl)cc1 (stereo not drawn)
  EC50: > 200 µM
  IC50: 33.9 µM

## N#C/C(=C\c1ccc(Cl)cc1)c1ccc(C(=O)O)cc1
  EC50: > 200 µM
  IC50: 110 µM

## CC1(c2nc3ccccc3[nH]2)CCC(C#N)C(C)(C)O1 (stereo not drawn)
  EC50: > 200 µM
  IC50: > 200 µM

## O=C1[C@H]2ON(c3ccccc3)C(c3ccco3)[C@H]2C(=O)N1c1ccc(Cc2ccc(N3C(=O)[C@@H]4ON(c5ccccc5)C(c5ccco5)[C@@H]4C3=O)cc2)cc1 (stereo partly drawn)
  EC50: > 7.08 µM
  IC50: > 7.08 µM

## Cn1cccc(C(=O)c2ccccc2)c1=O
  outcome: inactive

## O=C1Nc2cc([N+](=O)[O-])ccc2NC1/C(=N\Nc1ccccc1)C(O)c1cccc([N+](=O)[O-])c1 (stereo not drawn)
  EC50: > 417 µM
  IC50: 47.9 µM

## CCN(CC)C(=S)S[Se](SC(=S)N(CC)CC)(SC(=S)N(CC)CC)SC(=S)N(CC)CC
  EC50: > 200 µM
  IC50: 0.794 µM

## NC(N)=N/N=C(\c1nc2ccc([N+](=O)[O-])cc2[nH]c1=O)C(O)c1ccc([N+](=O)[O-])cc1 (stereo not drawn)
  EC50: > 158 µM
  IC50: > 158 µM

## CCN(CC)c1c(N(CC)CC)c(=O)c1=O
  EC50: > 200 µM
  IC50: 6.03 µM

## N/C(=N\NS(=O)(=O)c1ccccc1)Oc1ccc(Br)cc1Br
  EC50: > 112 µM
  IC50: > 112 µM

## O=c1[nH]c2c(c(=O)[nH]1)SSC2
  EC50: > 200 µM
  IC50: 0.631 µM

## COc1cc(/C=C/C(=N\NS(=O)(=O)c2ccc(C)cc2)c2sc(NNC(C)=O)nc2C)ccc1O
  EC50: > 46.8 µM
  IC50: > 46.8 µM

## Cn1c(=O)c2c(ncn2Cc2ccc(O)c([N+](=O)[O-])c2)n(C)c1=O
  EC50: > 200 µM
  IC50: > 100 µM

## O=C(C1OC1c1ccc(O)cc1)C12CC3CC(CC(C3)C1)C2 (stereo not drawn)
  EC50: > 200 µM
  IC50: 52.5 µM

## Cc1cn([C@@H]2C[C@H]2CO)c(=O)[nH]c1=O
  outcome: inactive

## CO[C@H]1[C@H](O)[C@H](O[C@H]2CC[C@@]3(C)[C@H](CC[C@@H]4[C@@H]3CC[C@]3(C)[C@@H](C5=CC(=O)OC5)CC[C@]43O)C2)O[C@@H](C)[C@@H]1O
  outcome: inactive

## CC1(C)CCC2(C(=O)OC3OC(CO)C(O)C(O)C3O)CCC3(CO)C(=CCC4C5(C)CC(O)C(O)C(C)(C(=O)OC6OC(CO)C(O)C(O)C6O)C5CCC43C)C2C1 (stereo not drawn)
  outcome: inactive

## O=C(/C=C/c1ccccc1Cl)c1ccccc1
  EC50: > 21.4 µM
  IC50: 14.5 µM

## CN1C(=O)/C(=N/N(c2ccccc2)c2ccccc2)c2ccccc21
  EC50: > 200 µM
  IC50: > 200 µM

## S=C1NC(c2ccccc2)Nc2ccccc21 (stereo not drawn)
  EC50: > 107 µM
  IC50: > 107 µM

## N#CC1(C#N)C(c2ccccc2)NC23CCCCC2C1(C#N)C(=O)N3 (stereo not drawn)
  EC50: > 200 µM
  IC50: 81.3 µM

## Cc1ccc(/C=N/n2c(=O)[nH]c3ccccc3c2=O)cc1
  EC50: > 200 µM
  IC50: > 200 µM

## CNc1ccc(/C=C/c2ccnc3ccccc23)cc1
  EC50: > 200 µM
  IC50: 6.31 µM

## Cc1cccc(NS(=O)(=O)c2ccc3c(c2)OCCOCCOCCOCCO3)c1
  EC50: > 200 µM
  IC50: 158 µM

## CC(=O)Nc1cc(S(=O)(=O)O)cc2cc(S(=O)(=O)O)cc(O)c12
  EC50: > 200 µM
  IC50: > 200 µM

## CCN(CC)CC1CCCCN1CC(=O)N1CC(C)C(=O)Nc2ccccc21 (stereo not drawn)
  EC50: 34.7 µM
  IC50: 251 µM

## COc1cccc2c1C1=CC(=O)CCC1C(C)(C)O2 (stereo not drawn)
  EC50: > 195 µM
  IC50: 110 µM

## C[C@@H](NC(=O)[C@@H]1C[C@]1(C)COC(=O)c1cc([N+](=O)[O-])cc([N+](=O)[O-])c1)c1cccc2ccccc12
  EC50: > 200 µM
  IC50: 115 µM

## CCOC(=O)c1sc2c(c1O)c(=O)n(-c1ccccc1)c(=S)n2-c1ccccc1
  EC50: > 17 µM
  IC50: > 17 µM

## C/C(=N\O)c1ccc(OCc2cc(C(F)(F)F)cc(C(F)(F)F)c2)cc1
  EC50: > 200 µM
  IC50: 40.7 µM

## O=[N+]([O-])c1ccc(C=Cc2ccc(C(F)(F)F)cc2)cc1.[C-]#[O+].[C-]#[O+].[C-]#[O+].[Cr]
  outcome: inactive

## CC#N.CC#N.COC(=O)[C@@H]1COC(=O)[N-]1.COC(=O)[C@@H]1COC(=O)[N-]1.COC(=O)[C@@H]1COC(=O)[N-]1.COC(=O)[C@@H]1COC(=O)[N-]1.[Rh+2].[Rh+2]
  EC50: > 200 µM
  IC50: > 200 µM

## O=c1[nH]c(=O)n(CCOc2ccccc2)cc1Nc1ccccc1
  EC50: > 200 µM
  IC50: > 200 µM

## CC(CN=C(N)CSS(=O)(=O)O)OC12CC3CC(CC(C3)C1)C2 (stereo not drawn)
  EC50: > 200 µM
  IC50: 35.5 µM

## S=C1Cc2c(-c3ccccc3)cc(-c3ccc(Cl)cc3)nc2-c2ccccc2N1
  EC50: > 200 µM
  IC50: 3.39 µM

## CC1CC2CC(=O)CC3(C1)C2CCCN3CCCO (stereo not drawn)
  outcome: inactive

## C/C(O)=C/c1nc2ccccc2n2nnnc12
  EC50: > 110 µM
  IC50: > 110 µM

## CCOC(=O)n1c(=O)nc2c3c(ncn21)Oc1c(c(-c2ccccc2)nn1-c1ccccc1)C3c1ccc(Cl)cc1 (stereo not drawn)
  EC50: > 200 µM
  IC50: 2.29 µM

## Nc1nc(N)c(N=O)c(Nc2ccccc2)n1
  EC50: > 200 µM
  IC50: 33.9 µM

## COC1(OC)C(N(C)C)=C(Cl)C(=O)/C1=C/C=O
  EC50: > 251 µM
  IC50: 72.4 µM

## COC(=O)NC1=Nc2ccccc2-c2ccccc2N1
  EC50: > 200 µM
  IC50: 123 µM

## N#C/C(=C\n1c(=S)[nH]c2ccc([N+](=O)[O-])cc21)c1cccc(Cl)c1
  EC50: > 200 µM
  IC50: 120 µM

## Cc1ccc2oc(=O)ccc2c1
  EC50: > 427 µM
  IC50: 174 µM

## CC(=O)Nc1ccc2nncnc2c1
  EC50: > 200 µM
  IC50: > 200 µM

## CC(=O)NCS(=O)(=O)O
  EC50: > 200 µM
  IC50: > 200 µM

## CC1(C)CCc2cc3c(-c4ccccc4)cc(=O)oc3cc2O1
  outcome: inactive

## CCOC(=O)C(NNc1ccccc1)C(c1ccccc1)[P+](c1ccccc1)(c1ccccc1)c1ccccc1 (stereo not drawn)
  EC50: > 200 µM
  IC50: 3.63 µM

## CC(=O)Nc1ccc2cc(-c3ccc(Cl)cc3)c3nnnn3c2n1
  EC50: > 200 µM
  IC50: > 200 µM

## O=C(O)c1ccc(C2SCc3nc4ccccc4n32)cc1 (stereo not drawn)
  EC50: > 200 µM
  IC50: > 200 µM

## Brc1ccc(N2N=NC3CN(c4ccccc4)CC32)cc1 (stereo not drawn)
  EC50: > 100 µM
  IC50: 58.9 µM

## CN=C(NC)c1ccc(NC(=O)c2ccc(C(=O)Nc3ccc(C(=NC)NC)c(C)c3)cc2)cc1C
  outcome: inactive

## Cc1ccc2c(c1)nc1c3ccccc3nnn21
  EC50: > 16.2 µM
  IC50: > 16.2 µM

## Cc1cn(C2C=CC(CO)(C(F)(F)F)O2)c(=O)[nH]c1=O (stereo not drawn)
  EC50: > 200 µM
  IC50: > 200 µM

## O=C(NCC(O)COc1ccccc1)c1ccccc1O (stereo not drawn)
  EC50: > 200 µM
  IC50: 115 µM

## N#Cc1nc(/C=C/c2nc(C#N)c(N)o2)oc1N
  EC50: > 100 µM
  IC50: > 100 µM

## Cc1ccc2c(c1-c1c(C)ccc3c1C(=O)c1ccccc1C3=O)C(=O)c1ccccc1C2=O
  EC50: > 200 µM
  IC50: 7.76 µM

## C/C(CC(O)(C(F)(F)Cl)C(F)(F)Cl)=N\Nc1ccccc1
  EC50: > 200 µM
  IC50: 52.5 µM

## O=C(CCCN1CCC2(CC1)CC(=O)N(N1CCCCCC1)C2=O)c1ccccc1
  EC50: > 200 µM
  IC50: 182 µM

## C=C[C+](CCCC)C(=O)[O-]
  EC50: 589 µM
  IC50: 631 µM

## CCOC(=O)c1cc(-c2ccccc2)c(=O)c(OC)nc1-c1ccccc1
  EC50: > 200 µM
  IC50: 74.1 µM

## C=CCn1c2c(sc1=S)C(S)N=CN2 (stereo not drawn)
  EC50: > 107 µM
  IC50: 42.7 µM

## CN(C)Cc1cc(C(=O)/C=C/c2ccc(Cl)cc2Cl)cc(CN(C)C)c1O
  EC50: > 200 µM
  IC50: 3.8 µM

## C/C(=N\NC(=S)NCCNC(=S)N/N=C(\C)c1ccccn1)c1ccccn1
  EC50: > 200 µM
  IC50: 3.39 µM

## CCOC(=O)C(C(=O)OCC)C1(c2ccccc2)OC(=O)c2ccccc21 (stereo not drawn)
  outcome: inactive

## COc1ccc2ccccc2c1C1OC(=O)c2ccccc21 (stereo not drawn)
  EC50: > 46.8 µM
  IC50: 28.8 µM

## CC(=O)c1c(-c2ccc(Cl)cc2)c(C#N)c(=S)n(C2OC(CO)C(O)C(O)C2O)c1-c1ccccc1 (stereo not drawn)
  EC50: > 200 µM
  IC50: 28.2 µM and 14.1 µM

## Cc1nccn1Cc1c(N)nc(N)[nH]c1=O
  EC50: > 200 µM
  IC50: > 200 µM

## O=c1c2cc(S(=O)(=O)Nc3ccc(Cl)cc3Cl)ccc2ncn1NS(=O)(=O)c1cccc2ccccc12
  EC50: > 200 µM
  IC50: 33.1 µM

## O=c1cc(Cl)c(Cl)nn1-c1ccccc1
  EC50: > 56.2 µM
  IC50: 9.77 µM

## O=S1(=O)CCN2OCC1C2c1cccc2ccccc12 (stereo not drawn)
  outcome: inactive

## COc1ccc(Nc2cc[nH]c(=O)c2NC(C)=O)cc1
  EC50: > 479 µM
  IC50: > 479 µM

## CCN(CC)C(=O)CCNC(C)Cc1c[nH]c2ccccc12 (stereo not drawn)
  EC50: > 200 µM
  IC50: > 200 µM

## COc1cc2ccnc3c2c(c1OC)CC1CC(O)C(OC)CC31 (stereo not drawn)
  outcome: inactive

## C[C@]12CC[C@H](OC(=O)CCC(=O)O)CC1=CC[C@@H]1C2CC[C@@]2(C)C1CC[C@@H]2c1nc(-c2ccccc2)cs1 (stereo partly drawn)
  EC50: > 46.8 µM
  IC50: 17.4 µM

## CC(=O)Nc1ccc2cc(C)c(=O)[nH]c2n1
  EC50: > 200 µM
  IC50: > 200 µM

## CC(C)Oc1c(O)c2c3c(oc(=O)n3C=CC2c2ccccc2F)c1OC(C)C (stereo not drawn)
  EC50: > 200 µM
  IC50: 29.5 µM

## O=C(NNC(=S)Nc1ccc(Cl)cc1)c1cc(-c2ccccc2)nc2ccccc12
  EC50: > 200 µM
  IC50: 8.51 µM

## Cc1cc(Nc2ccc(S(=O)(=O)O)cc2)c2ccccc2n1
  EC50: > 200 µM
  IC50: > 200 µM

## CCOC(=O)c1cnc2ccc(C)cn2c1=O
  outcome: inactive

## O=C1c2ccccc2C(Br)(Br)c2ccccc21
  outcome: inactive

## CC(=O)NC(CCC(=O)c1ccc(Oc2ccccc2)cc1)C(=O)O (stereo not drawn)
  EC50: > 200 µM
  IC50: > 200 µM

## O=C(O)c1ccc(S(=O)(=O)c2ccccc2[N+](=O)[O-])cc1
  EC50: > 200 µM
  IC50: > 200 µM

## O=C(O)C1(Cc2ccc3c(c2)CCC3)Cc2ccccc2C1
  EC50: > 200 µM
  IC50: 81.3 µM

## COC(=O)[C@@H](Cc1ccccc1)N1O[C@]12CCCC[C@@H]2NC(=O)OC(C)(C)C (stereo partly drawn)
  EC50: > 200 µM
  IC50: 32.4 µM

## COc1cc(-c2ccc(N=Nc3c(S(=O)(=O)O)cc4cc(S(=O)(=O)O)cc(N)c4c3O)c(OC)c2)ccc1N=Nc1c(S(=O)(=O)O)cc2cc(S(=O)(=O)O)cc(N)c2c1O
  outcome: active
